The values below come from PMC8146883, “A New Thermophilic Ene-Reductase from the Filamentous Anoxygenic Phototrophic Bacterium Chloroflexus aggregans” (Microorganisms, 2021).

The target of this assay is T1, CaOYE (Chloroflexus aggregans, UniProt B8G5D6).
T1 construct: gene Cagg_2779; full-length ORF in pET-28a(+) (NdeI/BamHI), N-terminal His6-tag, E. coli BL21(DE3); model visible Met1 to Trp354; monomer in solution, dimer in crystal
The experiment in a line: X-ray crystal structure, […] Å. The format is binding. Particulars: non-covalent, active site; crystals from 100 mM HEPES pH 7.0, 1.1 M sodium malonate.

T1 sequence (B8G5D6 whole entry): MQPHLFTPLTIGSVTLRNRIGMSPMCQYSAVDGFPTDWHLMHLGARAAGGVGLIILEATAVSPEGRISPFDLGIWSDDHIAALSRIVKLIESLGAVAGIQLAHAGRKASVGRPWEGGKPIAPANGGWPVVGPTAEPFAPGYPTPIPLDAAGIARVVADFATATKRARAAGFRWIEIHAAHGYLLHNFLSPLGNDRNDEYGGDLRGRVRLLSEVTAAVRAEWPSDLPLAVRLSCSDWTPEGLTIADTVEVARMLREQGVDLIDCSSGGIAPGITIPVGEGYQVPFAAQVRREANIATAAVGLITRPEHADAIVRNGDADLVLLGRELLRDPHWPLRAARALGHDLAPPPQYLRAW

With `Cc1cc2nc3c(=O)[nH]c(=O)nc-3n(C[C@H](O)[C@H](O)[C@H](O)COP(=O)(O)O)c2cc1C` [FMN], the “X-ray crystal structure, 2.40 Å” value is listed as “The enzyme accommodates one molecule of FMN cofactor on the top of the β-barrel core”.
